According to ChEMBL document CHEMBL3813638, “Investigation of the apoptotic pathway induced by benzimidazole-oxindole conjugates against human breast cancer cells MCF-7” (Bioorg Med Chem Lett, 2016):
The source made the active and inactive calls. No cut-off for these calls is given here.

Assays:
MCF7 [1] = assay: Induction of apoptosis in human MCF7 cells assessed as suppression of Bcl-2 expression after 48 hrs by Western blot analysis; assay type: functional, cell-based
MCF7 [2] = assay: Induction of apoptosis in human MCF7 cells assessed as increase in Bax expression after 48 hrs by Western blot analysis; assay type: functional, cell-based
MCF7 [3] = assay: Induction of apoptosis in human MCF7 cells assessed as increase in cytochrome c levels at 1 to 2 uM after 48 hrs by Western blot analysis; assay type: functional, cell-based
MCF7 [4] = assay: Induction of apoptosis in human MCF7 cells assessed as increase in caspase-9 activation at 1 to 2 uM after 48 hrs by Western blot analysis; assay type: functional, cell-based
MCF7 [5] = assay: Induction of apoptosis in human MCF7 cells assessed as increase in PARP 89 KDa cleavage at 1 to 2 uM after 48 hrs by Western blot analysis; assay type: functional, cell-based
HEK293 = assay: Cytotoxicity against human HEK293 cells assessed as cell growth inhibition after 48 hrs by MTT assay; assay type: cell-based; details: HEK293, 48 h
Vero = assay: Cytotoxicity against African green monkey Vero cells assessed as cell growth inhibition after 48 hrs by MTT assay; assay type: cell-based; details: Chlorocebus sabaeus
MCF7 [6] = assay: Disruption of mitochondrial membrane potential in human MCF7 cells assessed as cells with vital and intact mitochondrial membrane at 1 uM after 48 hrs by JC-1 staining based flow cytometry (reference value: 94%); assay type: functional
MCF7 [7] = assay: Disruption of mitochondrial membrane potential in human MCF7 cells assessed as cells with vital and intact mitochondrial membrane at 2 uM after 48 hrs by JC-1 staining based flow cytometry (reference value: 94%); assay type: functional
MCF7 [8] = assay: Induction of ROS generation in human MCF7 cells at 1 uM after 48 hrs by DCFDA fluorescent probe based flow cytometry (reference value: 5.3%); assay type: functional
MCF7 [9] = assay: Induction of ROS generation in human MCF7 cells at 2 uM after 48 hrs by DCFDA fluorescent probe based flow cytometry (reference value: 5.3%); assay type: functional
MCF7 [10] = assay: Induction of apoptosis in human MCF7 cells assessed as viable cells at 1 uM after 24 hrs by Annexin V-FITC/PI dual staining based flow cytometry (reference value: 94.9%); assay type: functional; details: MCF7, 24 h, read-out: Activity
MCF7 [11] = assay: Induction of apoptosis in human MCF7 cells assessed as early apoptotic cells at 1 uM after 24 hrs by Annexin V-FITC/PI dual staining based flow cytometry (reference value: 3.5%); assay type: functional
MCF7 [12] = assay: Induction of apoptosis in human MCF7 cells assessed as late apoptotic cells at 1 uM after 24 hrs by Annexin V-FITC/PI dual staining based flow cytometry (reference value: 1.5%); assay type: functional
MCF7 [13] = assay: Induction of apoptosis in human MCF7 cells assessed as necrotic cells at 1 uM after 24 hrs by Annexin V-FITC/PI dual staining based flow cytometry (reference value: 0.1%); assay type: functional
MCF7 [14] = assay: Induction of apoptosis in human MCF7 cells assessed as viable cells at 2 uM after 24 hrs by Annexin V-FITC/PI dual staining based flow cytometry (reference value: 94.9%); assay type: functional; details: MCF7, 24 h, read-out: Activity
MCF7 [15] = assay: Induction of apoptosis in human MCF7 cells assessed as early apoptotic cells at 2 uM after 24 hrs by Annexin V-FITC/PI dual staining based flow cytometry (reference value: 3.5%); assay type: functional
MCF7 [16] = assay: Induction of apoptosis in human MCF7 cells assessed as late apoptotic cells at 2 uM after 24 hrs by Annexin V-FITC/PI dual staining based flow cytometry (reference value: 1.5%); assay type: functional
MCF7 [17] = assay: Induction of apoptosis in human MCF7 cells assessed as necrotic cells at 2 uM after 24 hrs by Annexin V-FITC/PI dual staining based flow cytometry (reference value: 0.1%); assay type: functional
MCF7 [18] = assay: Cytotoxicity against human MCF7 cells; assay type: functional, cell-based

O=C1Nc2cc(Cl)ccc2/C1=C/c1ccc2nc(-c3cc(F)cc(F)c3)[nH]c2c1
Activity (MCF7 [1]): Dose-dependent effect
Activity (MCF7 [2]): Dose-dependent effect
Activity (MCF7 [3]): Active
Activity (MCF7 [4]): Active
Activity (MCF7 [5]): Active
IC50 (HEK293): 147 µM
IC50 (Vero): 97.9 µM
Activity (MCF7 [6]): 83.1%
Activity (MCF7 [7]): 61.8%
Activity (MCF7 [8]): 20.3%
Activity (MCF7 [9]): 30%
viability at 1 µM (MCF7 [10]): 42.3%
Activity (MCF7 [11]): 32.5%
Activity (MCF7 [12]): 23.4%
Activity (MCF7 [13]): 1.8%
viability at 2 µM (MCF7 [14]): 31%
Activity (MCF7 [15]): 33%
Activity (MCF7 [16]): 34.9%
Activity (MCF7 [17]): 1.2%
IC50 (MCF7 [18]): 1.97 µM

COc1ccc(-c2nc3ccc(/C=C4\C(=O)Nc5ccc(Cl)cc54)cc3[nH]2)cc1
Activity (MCF7 [1]): Dose-dependent effect
Activity (MCF7 [2]): Dose-dependent effect
Activity (MCF7 [3]): Active
Activity (MCF7 [4]): Active
Activity (MCF7 [5]): Active
IC50 (HEK293): 170 µM
IC50 (Vero): 109 µM
Activity (MCF7 [6]): 80.7%
Activity (MCF7 [7]): 57.7%
Activity (MCF7 [8]): 21.9%
Activity (MCF7 [9]): 33.8%
viability at 1 µM (MCF7 [10]): 40.7%
Activity (MCF7 [11]): 26.3%
Activity (MCF7 [12]): 31.3%
Activity (MCF7 [13]): 1.6%
viability at 2 µM (MCF7 [14]): 27%
Activity (MCF7 [15]): 35.4%
Activity (MCF7 [16]): 36.5%
Activity (MCF7 [17]): 1.1%
IC50 (MCF7 [18]): 1.84 µM
